Assay results published in PubChem BioAssay AID248 (DTP/NCI, 2004).
Several values for one entry are separate records, joined by “and”; a condition that tells them apart may be missing. Equal values may be shown once. Inconclusive results and toxic doses are left out. Rule as the data show it: active = T/C of 150% or more; inactive = T/C below 125%.

Tested on: L1210 leukemia ip in BDF1 mice, survival T/C
Assay: NCI In Vivo Anticancer Drug Screen. Data for tumor model L1210 Leukemia (intraperitoneal) in B6D2F1 (BDF1) mice
Conditions: endpoint: mean survival time, higher = longer survival
Outline: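 Read-out is survival time, reported as the treated-group measurement over the vehicle-control measurement.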

[1] = dose: 100.0 mg/kg/injection, schedule: Q04DX003 (ip), vehicle: saline with Tween-80
[2] = dose: 200.0 mg/kg/injection, schedule: Q04DX003 (ip), vehicle: saline with Tween-80
[3] = dose: 400.0 mg/kg/injection, schedule: Q04DX003 (ip), vehicle: saline with Tween-80
[4] = dose: 200.0 mg/kg/injection, schedule: Q01DX009 (ip), vehicle: Klucel (hydroxypropylcellulose) (HPC)
[5] = dose: 100.0 mg/kg/injection, schedule: Q01DX001 (ip), vehicle: saline
[6] = dose: 200.0 mg/kg/injection, schedule: Q01DX001 (ip), vehicle: saline
[7] = dose: 400.0 mg/kg/injection, schedule: Q01DX001 (ip), vehicle: saline
[8] = dose: 25.0 mg/kg/injection, schedule: Q01DX009 (ip), vehicle: saline with Tween-80
[9] = dose: 50.0 mg/kg/injection, schedule: Q01DX009 (ip), vehicle: saline with Tween-80
[10] = dose: 100.0 mg/kg/injection, schedule: Q01DX009 (ip), vehicle: saline with Tween-80
[11] = dose: 50.0 mg/kg/injection, schedule: Q01DX001 (ip), vehicle: carboxymethylcellulose (CMC)
[12] = dose: 100.0 mg/kg/injection, schedule: Q01DX001 (ip), vehicle: carboxymethylcellulose (CMC)
[13] = dose: 200.0 mg/kg/injection, schedule: Q01DX001 (ip), vehicle: carboxymethylcellulose (CMC)
[14] = dose: 400.0 mg/kg/injection, schedule: Q01DX001 (ip), vehicle: carboxymethylcellulose (CMC)
[15] = dose: 100.0 mg/kg/injection, schedule: Q04DX002 (ip), vehicle: saline
[16] = dose: 200.0 mg/kg/injection, schedule: Q04DX002 (ip), vehicle: saline
[17] = dose: 200.0 mg/kg/injection, schedule: Q01DX009 (ip), vehicle: saline with Tween-80
[18] = dose: 400.0 mg/kg/injection, schedule: Q01DX009 (ip), vehicle: saline with Tween-80

Measured: T/C

CC1(C)OCC(/C=C/C=N/Nc2ccc([N+](=O)[O-])cc2)O1 (centres undefined)
inactive: [1] 94 % of control | [2] 96 % of control | [3] 91 % of control

O=[N+]([O-])c1cc(Cl)ccc1S(=O)(=O)c1ccccc1
inactive: dose: 50.0 mg/kg/injection, schedule: Q01DX009 (ip), vehicle: Klucel (hydroxypropylcellulose) (HPC) 99 % of control | dose: 100.0 mg/kg/injection, schedule: Q01DX009 (ip), vehicle: Klucel (hydroxypropylcellulose) (HPC) 99 % of control | [4] 108 % of control

CC(C)C(NC(=O)C(F)(F)F)C(=O)O (centres undefined)
inactive: dose: 87.5 mg/kg/injection, schedule: Q04DX003 (ip), vehicle: saline 90 % of control | dose: 175.0 mg/kg/injection, schedule: Q04DX003 (ip), vehicle: saline 89 % of control

Nc1ccc(CSc2ccccc2)cc1F
inactive: dose: 100.0 mg/kg/injection, schedule: Q01DX009 (ip), vehicle: saline + alcohol 94 % of control | dose: 200.0 mg/kg/injection, schedule: Q01DX009 (ip), vehicle: saline + alcohol 93 % of control | dose: 400.0 mg/kg/injection, schedule: Q01DX009 (ip), vehicle: saline + alcohol 86 % of control

Oc1ccc(Br)cc1-c1nc2cc3ccccc3cc2nc1-c1cc(Br)ccc1O
inactive: [5] 103 % of control | [6] 96 % of control | [7] 94 % of control

O=P(CCl)(CCl)CCl
inactive: [8] 100 % of control | [9] 92 % of control | [10] 88 % of control and 92 % of control

CCCCCCCCCCC[As](=O)(O)O
inactive: dose: 12.5 mg/kg/injection, schedule: Q01DX001 (ip), vehicle: carboxymethylcellulose (CMC) 108 % of control | dose: 25.0 mg/kg/injection, schedule: Q01DX001 (ip), vehicle: carboxymethylcellulose (CMC) 96 % of control | [11] 104 % of control

CN(C/C=C/CN(C)P(=S)(N1CC1)N1CC1)P(=S)(N1CC1)N1CC1
inactive: [12] 96 % of control | [13] 93 % of control | [14] 109 % of control

O=C1Nc2ccccc2C1=NC1CCCC1
inactive: [5] 93 % of control | [6] 98 % of control | [7] 97 % of control

Cc1cc(N(CCCl)CCCl)ccc1C=Nc1ccc(-c2csc(-c3ccccc3)n2)cc1
inactive: [11] 103 % of control | [12] 94 % of control | [13] 97 % of control | [14] 100 % of control

O=C(CCCl)OCCCl
inactive: dose: 50.0 mg/kg/injection, schedule: Q01DX009 (ip), vehicle: saline sonified 94 % of control | dose: 100.0 mg/kg/injection, schedule: Q01DX009 (ip), vehicle: saline sonified 96 % of control | dose: 200.0 mg/kg/injection, schedule: Q01DX009 (ip), vehicle: saline sonified 94 % of control

CCCCCCOC(=O)C(C)(O)C(Cl)c1ccccc1 (centres undefined)
inactive: [15] 100 % of control | [16] 111 % of control | dose: 400.0 mg/kg/injection, schedule: Q04DX002 (ip), vehicle: saline 91 % of control

O=C(O)CCCCCCCCCCCCO
inactive: dose: 100.0 mg/kg/injection, schedule: Q04DX003 (ip), vehicle: Klucel (hydroxypropylcellulose) (HPC) 96 % of control | dose: 200.0 mg/kg/injection, schedule: Q04DX003 (ip), vehicle: Klucel (hydroxypropylcellulose) (HPC) 91 % of control | dose: 400.0 mg/kg/injection, schedule: Q04DX003 (ip), vehicle: Klucel (hydroxypropylcellulose) (HPC) 96 % of control

CC(CCC(=O)O)(c1cc(Br)c(O)c(Br)c1)c1cc(Br)c(O)c(Br)c1
inactive: dose: 100.0 mg/kg/injection, schedule: Q01DX009 (ip), vehicle: saline 93 % of control | dose: 100.0 mg/kg/injection, schedule: Q04DX003 (ip), vehicle: other 102 % of control | dose: 200.0 mg/kg/injection, schedule: Q01DX009 (ip), vehicle: saline 95 % of control | dose: 200.0 mg/kg/injection, schedule: Q04DX003 (ip), vehicle: other 102 % of control | dose: 400.0 mg/kg/injection, schedule: Q01DX009 (ip), vehicle: saline 87 % of control | dose: 400.0 mg/kg/injection, schedule: Q04DX003 (ip), vehicle: other 109 % of control

C#CCN(CC#C)C(C)=O
inactive: [15] 91 % of control | [16] 94 % of control

C=CCOc1c(C)cc(C)cc1/C=C/C
inactive: [1] 94 % of control | [2] 97 % of control | [3] 96 % of control

NCC(=O)c1c[nH]c(=O)[nH]c1=O
inactive: dose: 25.0 mg/kg/injection, schedule: Q01DX001 (ip), vehicle: saline 107 % of control | dose: 50.0 mg/kg/injection, schedule: Q01DX001 (ip), vehicle: saline 100 % of control | [5] 97 % of control and 102 % of control | [6] 115 % of control | [7] 102 % of control

CCc1ccc(P(=O)(O)O)cc1
inactive: dose: 75.0 mg/kg/injection, schedule: Q01DX001 (ip), vehicle: saline 94 % of control | dose: 150.0 mg/kg/injection, schedule: Q01DX001 (ip), vehicle: saline 103 % of control | dose: 300.0 mg/kg/injection, schedule: Q01DX001 (ip), vehicle: saline 88 % of control

CC(=O)C(C)(C)Cl
inactive: [10] 94 % of control | [17] 95 % of control | [18] 101 % of control

CCCCC[CH2][Sn]([CH2]C)([CH2]C)[CH2]C
inactive: [15] 93 % of control | [16] 93 % of control

CNC(=O)Oc1c(C)cccc1C
inactive: dose: 100.0 mg/kg/injection, schedule: Q04DX002 (ip), vehicle: saline with Tween-80 103 % of control | dose: 200.0 mg/kg/injection, schedule: Q04DX002 (ip), vehicle: saline with Tween-80 106 % of control | dose: 400.0 mg/kg/injection, schedule: Q04DX002 (ip), vehicle: saline with Tween-80 95 % of control

C/C(=C1\C(=O)Nc2ccccc21)c1ccco1
inactive: [1] 101 % of control | [2] 104 % of control | [3] 104 % of control

CC1=CS(=O)(=O)CC(=O)N1
inactive: [10] 101 % of control | [17] 100 % of control | [18] 97 % of control

Cc1ccc(S(=O)(=O)C2CCCC/C2=N\Nc2ccc([N+](=O)[O-])cc2[N+](=O)[O-])cc1 (centres undefined)
inactive: dose: 100.0 mg/kg/injection, schedule: Q01DX001 (ip), vehicle: other 105 % of control | dose: 200.0 mg/kg/injection, schedule: Q01DX001 (ip), vehicle: other 103 % of control | dose: 400.0 mg/kg/injection, schedule: Q01DX001 (ip), vehicle: other 96 % of control

Nc1ccc(I)c([N+](=O)[O-])c1
inactive: dose: 100.0 mg/kg/injection, schedule: Q04DX003 (ip), vehicle: acetone 87 % of control | dose: 200.0 mg/kg/injection, schedule: Q04DX003 (ip), vehicle: acetone 92 % of control | dose: 400.0 mg/kg/injection, schedule: Q04DX003 (ip), vehicle: acetone 101 % of control

CCCCOC(=O)c1ccc(OC(=O)Nc2cccc(Cl)c2)cc1
inactive: dose: 100.0 mg/kg/injection, schedule: Q01DX001 (ip), vehicle: Klucel (hydroxypropylcellulose) (HPC) 94 % of control | dose: 200.0 mg/kg/injection, schedule: Q01DX001 (ip), vehicle: Klucel (hydroxypropylcellulose) (HPC) 92 % of control | [4] 102 % of control | dose: 400.0 mg/kg/injection, schedule: Q01DX001 (ip), vehicle: Klucel (hydroxypropylcellulose) (HPC) 90 % of control

O=C1C(Cl)=C(Cl)C(=O)c2cc(Cl)c(Cl)cc21
inactive: dose: 10.0 mg/kg/injection, schedule: Q01DX001 (ip), vehicle: saline 93 % of control

O=C1C(N2CCCCC2)=C(c2ccccc2)c2ccccc21
inactive: [5] 92 % of control | [6] 94 % of control | [7] 102 % of control

CCCCC(=O)NN
inactive: dose: 12.5 mg/kg/injection, schedule: Q01DX009 (ip), vehicle: saline with Tween-80 103 % of control | dose: 22.0 mg/kg/injection, schedule: Q01DX009 (ip), vehicle: saline with Tween-80 110 % of control | [8] 111 % of control and 112 % of control | [9] 100 % of control | dose: 60.0 mg/kg/injection, schedule: Q01DX009 (ip), vehicle: saline with Tween-80 118 % of control

Cc1ccc2ccccc2c1N(CC(=O)O)S(=O)(=O)c1ccccc1 (tested in a mixture with another compound)
inactive: dose: 100.0 mg/kg/injection, schedule: Q04DX003 (ip), vehicle: saline sonified 94 % of control | dose: 200.0 mg/kg/injection, schedule: Q04DX003 (ip), vehicle: saline sonified 94 % of control | dose: 400.0 mg/kg/injection, schedule: Q04DX003 (ip), vehicle: saline sonified 112 % of control
